According to publication PMC7908975, “Antioxidant and Anti-Inflammatory Activity of Citrus Flavanones Mix and Its Stability after In Vitro Simulated Digestion” (Antioxidants, 2021):

Experiments:
[1] = system: IL-8 release in Caco-2 cells; assay: IL-8 release, IL-1β stimulated Caco-2 transwell model; type: cell-based, human; conditions: 24 h
Protocol: (§1) Experiments were carried out on transwell models (CacoReady™, Readycell, Barcelona, Spain) consisting of Caco-2 cells (8.5 × 10^4 cells/cm^2, passage number 41–58) seeded on polyester microporous filters in 24-well HTS plates (6.5 mm diameter, 0.33 cm^2 area and 0.4 µm of pore size) (Corning Incorporated, Corning, NY, USA). Completed Dulbecco’s Modified Eagle Medium (DMEM), prepared according to Denaro et al., was added on the apical (0.3 mL) and basolateral side (0.9 mL) of the Transwell® insert. After 21 days of culture, Caco-2 cells were completely differentiated and polarized, such that their phenotype resembled the morphological and functional features of mature enterocytes lining the small intestine.
(§2) Before starting with the anti-inflammatory experiments, the monolayer integrity was checked by measuring the trans-epithelial electrical resistance (TEER) with a Millicell® ERS-2 V/ohmmeter (Merck Millipore, Darmstadt, Germany) equipped with STX 100C electrode (World Precision Instruments, Sarasota, FL, USA). Caco-2-plated filters with epithelial resistance ≥800 Ω/cm^2 were used.
(§3) The anti-inflammatory activity of FM and digested FM (DFM) was evaluated on Caco-2 transwell model, according to Tesoriere et al., with some modifications. Briefly, 1.4 mM FM (see Section 2.3) was diluted 140 times in completed DMEM, obtaining a 10 µM FM (DMSO < 0.1%). […]
(§4) IL-6 and IL-8 release were measured by high-sensitivity human ELISA kits (Cymax IL-6 YIF-LF-EK0260 and Cymax IL-8YIF-LF-EK0262, Ab Frontiers, Adipogen Corporation, 9853 Pacific Heights Blvd., Suite L San Diego, CA, USA) according to the manufacturer’s recommendations, whereas NO release was estimated according to Tesoriere et al. by Griess reaction. […] Absorbance was recorded at 550 nm using a microplate reader (Multiskan GO, Thermo Scientific, Waltham, MA, USA). Results were expressed as µM NO extrapolating the results by a reference standard curve of sodium nitrite (1.0–15 µM).

[2] = system: NO release in Caco-2 cells; assay: NO release (Griess reaction), IL-1β stimulated Caco-2 transwell model; type: cell-based, human; conditions: 24 h
Protocol: as §1, §2, §3, §4

[3] = system: IL-6 release in Caco-2 cells; assay: IL-6 release, IL-1β stimulated Caco-2 transwell model; type: cell-based, human; conditions: 24 h
Protocol: as §1, §2, §3, §4

[4] = In vitro simulated human gastric and duodenal digestion with LC-DAD-ESI-MS/MS quantification; type: in vitro ADME; conditions: with respect to starting FM 10 µM; for DFM (µM): flavanone in duodenal digested flavanones mix: after gastric 2 h plus duodenal 4 h digestion, 37 °C; for GFM (µM): flavanone in gastric digested flavanones mix: after gastric digestion 2 h, pH 2.5, 37 °C
Excerpt: Based on the results of the preliminary antioxidant and anti-inflammatory screening (see Section 2.2), the most powerful flavanones (neohesperidin, hesperidin, neoeriocitrin, eriocitrin, and hesperetin) were selected in order to prepare a flavanones mix (FM), which was, at first instance, investigated by the same in vitro colorimetric assays (see Section 2.2) in order to evaluate its potency with respect to the single flavanones and to elucidate potential synergistic mechanisms. The following final concentration range of FM were used: FRAP (2.50–20 µM), ORAC (0.08–0.60 µM), TEAC (0.31–2.50 µM), DPPH (1.25–10 µM), ADA (5.0–40 µM), and APA (2.50–20 µM). After that, being the results of the preliminary antioxidant and anti-inflammatory screening of FM very promising, an appropriate concentration was chosen to proceed with the subsequent analyses. In particular, the FM was prepared on the assumption that digested sample, which would then be applied to the Caco-2 cells for the anti-inflammatory experiments, had to contain an equimolar concentration of the five most powerful flavanones (neohesperidin, hesperidin, neoeriocitrin, eriocitrin, and hesperetin) equal to 10 µM, which represents the mean efficacy concentration taking into account the IC50 values obtained in the preliminary antioxidant and anti-inflammatory screening of the FM. At this purpose, stock solutions (14 mM) of flavanones in DMSO were mixed and diluted 10-fold with Milli-Q water to obtain the 1.4 mM FM, which was used to carried out the in vitro simulated human digestion. In vitro gastric and duodenal digestion of FM was carried out according to Trombetta et al. with some modifications. FM solution (1.5 mL) (see Section 2.3), has been dissolved in 7.5 mL of simulated gastric solution containing 0.127 mM egg-phosphatidylcholine and adjusting the pH to 2.5, by 1 M HCl. Gastric pepsin and lipase (9000 U/mL and 60 U/mL, respectively) were added to the mixture starting the gastric digestion phase, which was protracted for 2 h at 37 °C, incubating under continuous stirring (170 rpm) by an Innova 4000 Benchtop Incubator Shaker (New Brunswick Scientific, Edison, NJ, USA). The gastric phase was stopped by the addition of 1M NaOH in order to reach a pH of 7.5, and 6 mL of the previous solution passed to the duodenal digestion phase. Duodenal solution was prepared by adding 2.10 mL of simulated bile solution (6.5 mM phosphatidylcholine, 4 mM cholesterol, 12.5 mM sodium taurocholate, and 12.5 mM sodium glycodeoxycholate) to 5.9 mL of simulated pancreatic juice containing pancreatic lipase (590 U/mL), colipase (3.2 µg/mL), trypsin (11 U/mL), α-chymotrypsin (24 U/mL), and α-amylase (300 U/mL). The duodenal mixture was incubated for 4 h under continuous stirring at 37 °C as described above. At the end, both gastric and duodenal digesta were immediately stored at −80 °C until the subsequent analyses. For quali-quantitative determination of flavanones, gastric and duodenal digesta were extracted with methanol (1:2, v/v) by mixing for 3 min. After that, samples were centrifuged at 12,000× g for 10 min, filtered by a 0.22 µm nylon syringe filter and injected into a liquid chromatograph equipped with a diode-array detector and mass spectrophotometer (LC-DAD-MS system, Agilent technologies, Santa Clara, CA, USA). The chromatographic separation was obtained using a reverse phase column Luna Omega PS C18 (150 × 2.1 mm, 5 µm; Phenomenex, Torrance, CA, USA) by using solvent A (formic acid 0.1% v/v) and solvent B (acetonitrile) as mobile phase according to the following elution gradient: 0 min, 0% B; 3–9 min, 3% B; 9–24 min, 12% B; 24–30 min, 20% B; 30–33 min, 33–43 30% B; 43–66 min 50% di B; 66–81 min 60% di B; 81–86 min 0% di B; 86–90 min 0% di B. […] UV–Vis spectra of flavanones were recorded (190–400 nm) and chromatograms were acquired at 292 nm, maximum flavanones absorption wavelength. […]

[5] = set-up: method as in PMID 19728713; conditions: as compounds of a bitter orange extract; cited from earlier work
[6] = Trolox Equivalent Antioxidant Capacity (TEAC) assay
Protocol: TEAC assay was carried out according to Bazzicalupo et al.. […] Fifty microliters of each flavanone (2.0–64 µM) or trolox as reference compound (2.50–20 µM) were added to 1 mL of the TEAC reagent and incubated at RT in the dark for 6 min. The absorbance was recorded at 734 nm. Based on the results of the preliminary antioxidant and anti-inflammatory screening (see Section 2.2), the most powerful flavanones (neohesperidin, hesperidin, neoeriocitrin, eriocitrin, and hesperetin) were selected in order to prepare a flavanones mix (FM), which was, at first instance, investigated by the same in vitro colorimetric assays (see Section 2.2) in order to evaluate its potency with respect to the single flavanones and to elucidate potential synergistic mechanisms. The following final concentration range of FM were used: FRAP (2.50–20 µM), ORAC (0.08–0.60 µM), TEAC (0.31–2.50 µM), DPPH (1.25–10 µM), ADA (5.0–40 µM), and APA (2.50–20 µM). After that, being the results of the preliminary antioxidant and anti-inflammatory screening of FM very promising, an appropriate concentration was chosen to proceed with the subsequent analyses. […]

trypsin = assay: Anti-protease activity (APA), anti-tryptic activity; type: biochemical
Protocol: The anti-tryptic activity of sample was evaluated according to Smeriglio et al.. Briefly, 200 µL of each flavanone (6.25–140 µM) or diclofenac sodium as reference compound (10–80 µM) were added to 12 µL of trypsin (10 µg/mL) and 188 µL of 25 mM Tris-HCl buffer (pH 7.5). After that, 200 µL of 0.8% casein solution were added and samples incubated for 20 min at 37 °C in a water bath. After that, 400 µL of perchloric acid were added to stop the reaction. The cloudy suspension, due to the protein precipitation, was centrifuged at 3500× g for 10 min and the absorbance of the supernatant was recorded at 280 nm against a blank consisting of deionized water instead of sample. Based on the results of the preliminary antioxidant and anti-inflammatory screening (see Section 2.2), the most powerful flavanones (neohesperidin, hesperidin, neoeriocitrin, eriocitrin, and hesperetin) were selected in order to prepare a flavanones mix (FM), which was, at first instance, investigated by the same in vitro colorimetric assays (see Section 2.2) in order to evaluate its potency with respect to the single flavanones and to elucidate potential synergistic mechanisms. The following final concentration range of FM were used: FRAP (2.50–20 µM), ORAC (0.08–0.60 µM), TEAC (0.31–2.50 µM), DPPH (1.25–10 µM), ADA (5.0–40 µM), and APA (2.50–20 µM). […]

[7] = 10 µM co-treatment with IL-1β 25 ng/mL

DFM (µM): flavanone in duodenal digested flavanones mix [4] [µM] | GFM (µM): flavanone in gastric digested flavanones mix [4] [µM] | Molecule | stability after simulated in vitro digestion [5] | IC50 in comparison with reference standard trolox, TEAC [6] | other results
 |  | IL-1β: well-known pro-inflammatory agent used at 25 ng/mL to trigger inflammation (CTR+) |  |  | increase in IL-8 vs CTR− ([1]; 25 ng/mL): ~ 27 folds; increase in NO release vs CTR− ([2]; 25 ng/mL): ~ 2.5 folds; increase in IL-6 vs CTR− ([3]; 25 ng/mL): ~ 7 folds
8.80 ± 0.03 | 9.05 ± 0.12 | C[C@@H]1O[C@@H](OC[C@H]2O[C@@H](Oc3cc(O)c4c(c3)O[C@H](c3ccc(O)c(O)c3)CC4=O)[C@H](O)[C@@H](O)[C@@H]2O)[C@H](O)[C@H](O)[C@H]1O [Eriocitrin, eriodictyol-7-O-rutinoside] |  |  | 
 |  | C[C@@H]1C[C@H]2[C@@H]3CCC4=CC(=O)C=C[C@]4(C)[C@@]3(F)[C@@H](O)C[C@]2(C)[C@@]1(O)C(=O)CO [Dex, dexamethasone] |  |  | pro-inflammatory activity, IL-8 release vs CTR− ([1]; 10 µM alone, without IL-1β): did not show any pro-inflammatory activity; inhibition of IL-8 release [1, 7]: ~66%; pro-inflammatory activity, NO release vs CTR− ([2]; 10 µM alone, without IL-1β): did not show any pro-inflammatory activity; inhibition of NO release [2, 7]: ~16%; pro-inflammatory activity, IL-6 release vs CTR− ([3]; 10 µM alone, without IL-1β): did not show any pro-inflammatory activity; IL-6 release with respect to positive control (CTR+) [3, 7]: statistically significant decrease (p < 0.001)
8.76 ± 0.22 | 9.38 ± 0.18 | COc1ccc(C2CC(=O)c3c(O)cc(O)cc3O2)cc1O (centres unmarked) [Hesperetin, 3′,5,7-trihydroxy-4′-methoxyflavanone] | stable after simulated in vitro digestion | a behavior comparable with the reference standard | anti-inflammatory activity less than the other tested molecules, protease inhibition (trypsin): about 4 times

Molecule | DFM (µM): flavanone in duodenal digested flavanones mix [4] [µM] | GFM (µM): flavanone in gastric digested flavanones mix [4] [µM] | stability after simulated in vitro digestion [5] | IC50 in comparison with reference standard trolox, TEAC [6] | other results
COc1ccc([C@@H]2CC(=O)c3c(O)cc(O[C@@H]4O[C@H](CO[C@@H]5O[C@@H](C)[C@H](O)[C@@H](O)[C@H]5O)[C@@H](O)[C@H](O)[C@H]4O)cc3O2)cc1O [Hesperidin, hesperetin-7-O-rutinoside] | 9.86 ± 0.13 | 9.95 ± 0.04 | stable after simulated in vitro digestion | a behavior comparable with the reference standard | 
